The values below come from patent US4966900A, “Cephalosporin β-lactam compound and medicinal composition” (priority 1986, dated 1990).

For orientation: MIC means the smallest concentration in the dilution series that meets the test's criterion for growth inhibition.

Some test systems named below: C. freundii 1U589; E. colacae GN7471; S. marcescens GN10857; C. freundii 1U692; E. coli ML4707; P. aeruginosa 4au542; E. coli GN5482; P. cepacia OF189; P. vulgaris GN7919; C. freundii 5D60-1; C. freundii GN7391; P. aeruginosa 5D58-1; S. aureus Smith; K. pneumoniae 4at521.
Common to all, as to test: MIC
Another test deals with C. freundii 1R527. The note with it: Citrobacter freundii, 1R527.
A further test concerns P. aeruginosa GN10362. To be noted: Pseudomonas aeruginosa, GN10362.
The next test has as its system C. freundii 1R523. To be noted: Citrobacter freundii, 1R523.
In the next test the test system is E. cloacae 1Y247. In kind it is cell-based. To be noted: Enterobacter cloacae, Table 6, read-out: MIC. Here is the method: (§1) The minimum inhibition concentrations (MIC) of the compounds obtained in the respective examples described above were measured according to the standard method of Japanese Chemotherapy Association.
In another test the test system is S. aureus IAA498. In kind it is cell-based. The note with it: Staphylococcus aureus. As for the experimental part: as §1
The subject of the next test is E. cloacae 5D52-2. To be noted: Enterobacter cloacae, 5D522.
Another test has as its system E. cloacae 1V25. The note with it: Enterobacter cloacae.
A further test has as its system C. freundii 1R524. To be noted: Citrobacter freundii, 1R524.
A further test has as its system E. cloacae 908RN. The note with it: Enterobacter cloacae.
The subject of a further test is E. cloacae 5D63-2. To be noted: Enterobacter cloacae, 5D632.
In a further test the test system is P. maltophilia OF247. The note with it: Stenotrophomonas maltophilia.
The next test concerns C. freundii 1R526. To be noted: Citrobacter freundii, 1R526.
The mark [1] stands for this setting: Serratia marcescens, GN10857, S. marcescens GN10857, Table 5.
Where [2] appears, read: Escherichia coli, ML4707, E. coli ML4707, Table 5.
Setting [3] is: Pseudomonas aeruginosa, 4AU542, P. aeruginosa 4au542, Table 5.
The mark [4] stands for this setting: Escherichia coli, GN5482, E. coli GN5482, Table 5.
[5] abbreviates: Burkholderia cepacia, OF189, P. cepacia OF189, Table 5.
The mark [6] stands for this setting: Citrobacter freundii, GN7391, C. freundii GN7391, Table 5.
Where [7] appears, read: Citrobacter freundii, GN7391, C. freundii GN7391, Table 6.
Where [8] appears, read: Pseudomonas aeruginosa, 5D581, P. aeruginosa 5D58-1, Table 5.

Values after ≈ are worked out from the molar mass of the structure shown. Counter-ions that a name gives are not always drawn. A value given as a limit tells only on which side of the number the result lay.

As to `Cc1cc(SCC2=C(C(=O)O)N3C(=O)C(NC(=O)C(=NOC(C)(C)C(=O)NNC(=O)c4ccc(O)c(O)c4)c4csc(N)n4)C3SC2)n2nnnc2n1` (centres unmarked) [Example 29, 7-{2-[2-amino-1,3-thiazol-4-yl]-2-[1-(3-(3,4-dihydroxybenzoyl)carbazoyl)-1-methylethoxyimino]acetamide}-3-[(5-methyltetrazolo[1,5-a]pyrimidin-7-yl)thiomethyl]-3-cephem-4-carboxylic acid.hydrochloride], the MIC stood at 0.78 µg/mL in the test on C. freundii 1U589 (Citrobacter freundii, 1U589); 0.78 µg/mL in the test with C. freundii 1R527; 0.39 µg/mL in the test on P. aeruginosa GN10362; 0.2 µg/mL against C. freundii 1R523; 1.56 µg/mL against E. colacae GN7471 (Table 5); 0.39 µg/mL against S. marcescens GN10857 (setting [1]). Further, the minimum inhibitory concentration (MIC) is 0.78 µg/mL in the test with E. cloacae 1Y247; 3.13 µg/mL against S. aureus IAA498 (Table 5); 0.78 µg/mL in the test on E. cloacae 5D52-2; 12.5 µg/mL against C. freundii 1U692 (Citrobacter freundii, 1U692); 3.13 µg/mL against E. cloacae 1V25; 0.78 µg/mL in the test on C. freundii 1R524. Further, the minimum inhibitory concentration (MIC) with E. coli ML4707 (setting [2]) was under 0.006 µg/mL; in the test with P. aeruginosa 4au542 (setting [3]), 0.78 µg/mL; in the test on E. coli GN5482 (setting [4]) it was 0.025 µg/mL; in the test on P. cepacia OF189 (setting [5]), under 0.006 µg/mL; with P. vulgaris GN7919 (Proteus vulgaris, GN7919), 6.25 µg/mL; against C. freundii 5D60-1 (Citrobacter freundii, 5D601), 0.39 µg/mL. Moreover, the MIC in the test with C. freundii GN7391 (setting [6]) was determined as 6.25 µg/mL; in the test with C. freundii GN7391 (setting [7]) it was 0.012 µg/mL; in the test on P. aeruginosa 5D58-1 (setting [8]), 0.39 µg/mL; in the test with E. cloacae 908RN (E. cloacae 908RN, Table 6), 3.13 µg/mL; with E. cloacae 908RN (E. colacae 908RN, Table 5), 6.25 µg/mL; in the test on E. cloacae 5D63-2, 0.78 µg/mL. The MIC turned out to be 0.2 µg/mL against P. maltophilia OF247 (Table 5); 1.56 µg/mL in the test with S. aureus Smith (Staphylococcus aureus, Table 5); 0.012 µg/mL in the test on K. pneumoniae 4at521 (Klebsiella pneumoniae, 4AT521); 0.2 µg/mL in the test with C. freundii 1R526.
On to `Cc1nc2nc(C(=O)O)nn2c(SCC2=C(C(=O)O)N3C(=O)C(NC(=O)C(=NOC(C)(C)C(=O)NNC(=O)c4ccc(O)c(O)c4)c4csc(N)n4)C3SC2)c1C` (centres unmarked) [Example 41, 7-{2-[2-Amino-1,3-thiazol 4-yl]-2-[1-(3-(3,4-dihydroxybenzoyl)carbazoyl)-1-methylethoxyimino]acetamide}-3-[(2-carboxy-5,6-dimethyl-s-triazolo[1,5-a]pyrimidin-7-yl)-thiomethyl]-3-cephem-4-carboxylic acid.hydrochloride], for which the minimum inhibitory concentration (MIC) is 0.05 µg/mL in the test on C. freundii 1U589 (Citrobacter freundii, 1U589); 0.012 µg/mL against C. freundii 1R527; 0.1 µg/mL against P. aeruginosa GN10362; 0.025 µg/mL in the test with C. freundii 1R523; 0.39 µg/mL against E. colacae GN7471 (Table 5); 0.1 µg/mL in the test with S. marcescens GN10857 (setting [1]). The MIC in the test with E. cloacae 1Y247 came to 0.39 µg/mL; in the test with S. aureus IAA498 (Table 5), 50 µg/mL; in the test with E. cloacae 5D52-2, 0.05 µg/mL; against C. freundii 1U692 (Citrobacter freundii, 1U692), 0.05 µg/mL; against E. cloacae 1V25 it was 1.56 µg/mL; in the test on C. freundii 1R524, 0.006 µg/mL. Besides, the MIC against E. coli ML4707 (setting [2]) is under 0.006 µg/mL; against P. aeruginosa 4au542 (setting [3]) it was 0.2 µg/mL; against E. coli GN5482 (setting [4]), under 0.006 µg/mL; in the test with P. cepacia OF189 (setting [5]), under 0.006 µg/mL; with P. vulgaris GN7919 (Proteus vulgaris, GN7919), 0.39 µg/mL; against C. freundii 5D60-1 (Citrobacter freundii, 5D601), 0.1 µg/mL. Further, the MIC came out at 0.39 µg/mL against C. freundii GN7391 (setting [6]); 0.39 µg/mL with C. freundii GN7391 (setting [7]); 0.39 µg/mL with P. aeruginosa 5D58-1 (setting [8]); 0.2 µg/mL in the test on E. cloacae 908RN (E. cloacae 908RN, Table 6); 0.2 µg/mL with E. cloacae 908RN (E. colacae 908RN, Table 5); 0.1 µg/mL with E. cloacae 5D63-2. Further, the MIC in the test on P. maltophilia OF247 (Table 5) was 0.1 µg/mL; against S. aureus Smith (Staphylococcus aureus, Table 5), 25 µg/mL; in the test on K. pneumoniae 4at521 (Klebsiella pneumoniae, 4AT521), under 0.006 µg/mL; against C. freundii 1R526 it was 0.025 µg/mL.
As for `Cc1cc(SCC2=C(C(=O)O)N3C(=O)C(NC(=O)C(=NOC(C)(C)C(=O)NNC(=O)c4ccc(O)c(O)c4)c4csc(N)n4)[C@H]3SC2)n2nc(C(F)(F)F)nc2n1` (some centres unmarked) [Example 55, 7-{2-[2-Amino-1,3-thiazol-4-yl]-2-[1-(3-(3,4-dihydroxybenzoyl)carbazoyl)-1-methylethoxyimino]acetamido}-3-[(5-methyl-2-trifluoromethyl-s-triazolo[1,5-a]pyrimidin-7-yl)-thiomethyl]-3-cephem-4-carboxylic acid], the MIC in the test with P. aeruginosa GN10362 stood at 0.39 µg/mL (≈ 0.458 µM); in the test with E. colacae GN7471 (Table 7) it was 25 µg/mL (≈ 29.3 µM); with S. marcescens GN10857 (Serratia marcescens, GN10857, S. marcescens GN10857, Table 7), 1.56 µg/mL (≈ 1.83 µM); against S. aureus IAA498 (Table 7), 6.25 µg/mL (≈ 7.34 µM); against E. coli ML4707 (Escherichia coli, ML4707, E. coli ML4707, Table 7) it was 0.05 µg/mL (≈ 0.0587 µM); in the test on P. aeruginosa 4au542 (Pseudomonas aeruginosa, 4AU542, P. aeruginosa 4au542, Table 7) it was 0.39 µg/mL (≈ 0.458 µM). Also, the minimal inhibitory concentration (MIC) turned out to be 0.025 µg/mL (≈ 0.0293 µM) against E. coli GN5482 (Escherichia coli, GN5482, E. coli GN5482, Table 7); 0.05 µg/mL (≈ 0.0587 µM) against P. cepacia OF189 (Burkholderia cepacia, OF189, P. cepacia OF189, Table 7); 1.56 µg/mL (≈ 1.83 µM) in the test on P. vulgaris GN7919 (Proteus vulgaris, GN7919); 6.25 µg/mL (≈ 7.34 µM) against C. freundii GN7391 (Citrobacter freundii, GN7391, C. freundii GN7391, Table 7); 0.39 µg/mL (≈ 0.458 µM) with P. aeruginosa 5D58-1 (Pseudomonas aeruginosa, 5D581, P. aeruginosa 5D58-1, Table 7); 12.5 µg/mL (≈ 14.7 µM) in the test with E. cloacae 908RN (E. colacae 908RN, Table 7). For the same compound, the MIC amounted to 1.56 µg/mL (≈ 1.83 µM) in the test on P. maltophilia OF247 (Table 7); 6.25 µg/mL (≈ 7.34 µM) with S. aureus Smith (Staphylococcus aureus, Table 7); 0.025 µg/mL (≈ 0.0293 µM) in the test with K. pneumoniae 4at521 (Klebsiella pneumoniae, 4AT521).
Regarding cephazoline [CAZ, reference compound], the MIC in the test on C. freundii 1U589 (C. freundii 1U589, Table 6) turned out to be 100 µg/mL; against C. freundii 1U589 (C. freundii 1U589, Table 8), 100 µg/mL; against E. colacae GN7471 (Table 5), 3.13 µg/mL; against S. marcescens GN10857 (S. marcescens GN10857, Table 5), 1.56 µg/mL; with C. freundii 1U692 (C. freundii 1U692, Table 6), 100 µg/mL; with C. freundii 1U692 (C. freundii 1U692, Table 8), 50.000 µg/mL. Besides, the minimal inhibitory concentration (MIC) is 0.05 µg/mL against E. coli ML4707 (E. coli ML4707, Table 5); 1.56 µg/mL in the test with P. aeruginosa 4au542 (P. aeruginosa 4au542, Table 5); 0.78 µg/mL against E. coli GN5482 (E. coli GN5482, Table 5); 3.13 µg/mL against P. cepacia OF189 (P. cepacia OF189, Table 5); 1.56 µg/mL in the test on P. vulgaris GN7919 (P. vulgaris Gn7919, Table 5); over 100 µg/mL in the test on C. freundii 5D60-1 (C. freundii 5D60-1, Table 6). Also, the MIC was over 100 µg/mL with C. freundii 5D60-1 (C. freundii 5D60-1, Table 8); over 100.00 µg/mL against C. freundii GN7391 (C. freundii GN7391, Table 5); over 100 µg/mL against C. freundii GN7391 (C. freundii GN7391, Table 6); 0.78 µg/mL in the test with P. aeruginosa 5D58-1 (P. aeruginosa 5D58-1, Table 5); 6.25 µg/mL against S. aureus Smith (Table 5); 0.10 µg/mL with K. pneumoniae 4at521 (K. pneumoniae 4at521, Table 5).
For `CC(C)(ON=C(C(=O)NC1C(=O)N2C(C(=O)O)=C(CSc3ccnc4ncnn34)CSC12)c1csc(N)n1)C(=O)NNC(=O)c1ccc(O)c(O)c1` (centres unmarked) [Example 38, 7-{2-[2-Amino-1,3-thiazol-4-yl]-2-[1-(3-(3,4-dihydroxybenzoyl)carbazoyl)-1-methylethoxyimino]acetamide}-3-[(s-triazolo[1,5-a]pyrimidin-7-yl)thiomethyl]-3-cephem-4-carboxylic acid.hydrochloride], the MIC against P. aeruginosa GN10362 was 0.1 µg/mL; in the test on E. colacae GN7471 (Table 5), 3.13 µg/mL; against S. marcescens GN10857 (setting [1]), 0.39 µg/mL; against S. aureus IAA498 (Table 5), 3.13 µg/mL; against E. coli ML4707 (setting [2]), 0.012 µg/mL; in the test on P. aeruginosa 4au542 (setting [3]), 0.1 µg/mL. Besides, the MIC in the test with E. coli GN5482 (setting [4]) is 0.025 µg/mL; against P. cepacia OF189 (setting [5]), 0.025 µg/mL; in the test on P. vulgaris GN7919 (Proteus vulgaris, GN7919), 1.56 µg/mL; against C. freundii GN7391 (setting [6]), 25 µg/mL; against P. aeruginosa 5D58-1 (setting [8]) it was 0.39 µg/mL; in the test with E. cloacae 908RN (E. colacae 908RN, Table 5), 25 µg/mL. In addition, the MIC was found to be 0.78 µg/mL against P. maltophilia OF247 (Table 5); 1.56 µg/mL in the test with S. aureus Smith (Staphylococcus aureus, Table 5); 0.012 µg/mL in the test on K. pneumoniae 4at521 (Klebsiella pneumoniae, 4AT521).
